Test results taken from patent US10327423B2, “Antimicrobial compounds and compositions, and uses thereof” (Akeso Biomedical, Inc., priority 2014, dated 2019).
“Also recorded” adds a separate entry of the source.

Legend:
[1] = test system: Enteropathogenic E. coli (EPEC) E2348/69; test: Crystal violet assay of attachment to plastic wells; assay type: cell-based, Escherichia coli; conditions: FeQ 100 μM; 48 hours at 37° C.
Protocol: (§1) Enteropathogenic E. coli (EPEC) E2348/69 were grown in wells for 48 hours at 37° C. in the presence of FeQ (100 μM), and in the absence of FeQ (as control). After 48 hours, the wells were washed in order to remove suspended cells. Crystal violet was then added to each well. The wells were then washed to remove excess dye. A mixture of acetone/ethanol was then added to the wells to re-suspend any cells attached to the plastic surface of the wells, and dissolve any dye present. The presence of dye in each well was then quantified by measuring the O.D. at 570 nm.
as §1, with “FeDOPA (10-250” for “FeQ (100”, “FeDOPA” for “FeQ”

[2] = Treatment of an acne patient; assay type: in vivo, human
Protocol: A patient was treated continuously for 30 days by applying a solution of ferric quinate (340 μM) to their acne vulgarism (“acne”) once each day. Within 5 days of the start of treatment, their acne, which had not previously responded to treatment with antibiotics, began to show signs of healing.

[3] = test system: kanamycin resistant strain of Enteropathogenic E. coli EPEC (E2348/69); test: Growth of kanamycin resistant EPEC with Fe-QA and kanamycin (patch on growth plate, growth curve); assay type: cell-based, Escherichia coli
Protocol: A kanamycin resistance gene was introduced into the genome of Enteropathogenic E. coli EPEC, (E2348/69), genotype; Wildtype EPEC-O-17:H6 allowing the kanamycin resistant strain of EPEC to grow in the presence of a patch that has been immersed in kanamycin (at a concentration of 50 μg/mL). The kanamycin resistant strain of EPEC was then immersed in a patch in a solution of Fe-QA.

[4] = test system: Staphylococcus aureus ATCC 25923; test: Biofilm formation on plastic coated UV beads; assay type: cell-based; conditions: different concentrations of Fe-QA; T=24 h
Protocol: Bacteria (Enterococcus faecalis NCTC 12697, Staphylococcus epidermidis F1513 and Staphylococcus aureus ATCC 25923) were grown on Brain heart infusion (BHI) passaged to new medium either containing Fe-QA or alone. Growth suspensions were prepared at 0.0001 OD/ml and then allowed to grow at 37° C. under normal atmospheric conditions for 24 h in BHI with plastic coated UV beads (Lascells). […], 10 μl suspension was serially diluted 10 fold to 10-3, 10-4, 10-5, 10-6, 10-7, 10-8. For each dilution, 10 μl was spotted on BHI agar plates and colonies counted after 24 h. The beads were also removed washed in PBS before adding to 1 ml PBS. After vortex mixing, 10 μl of the cell suspension was serially diluted as above and cell counts carried out.
The effect of Fe-QA on biofilm formation by S. aureus was tested as described in the materials and methods of Example 1.

[5] = test system: bacterial flora present in the mouth; test: Biofilm formation on extracted human teeth (CEPLAC staining); assay type: cell-based; conditions: FeQ 340 μM; 48 hours of culturing
Protocol: Molar teeth were extracted from human patients, and mouth swabs taken from each patient to obtain samples of each patient's bacterial flora present in the mouth. The mouth swabs were cultured in the laboratory using LB media in order to grow bacterial populations ordinarily present in the mouth of each patient. The extracted teeth were washed and brushed extensively using PBS buffer and ethanol. Each patient's tooth was then placed in the bacterial culture prepared from that patient's bacterial flora sample, and cultured aerobically for 24 hours in LB media. The teeth were then stained with CEPLAC™ (Manx Healthcare Ltd, Warwick, UK), and washed three times with PBS-Tween (50 mL) to determine if biofilm had been formed on the teeth.
All teeth stained red indicating the presence of biofilm on the teeth after just 24 hours. The same teeth were then cleaned using PBS buffer and ethanol, and the procedure repeated except with 48 hours of culturing in the presence of FeQ (340 μM).

O=C1[O][Fe]23([O]C(=O)[C@]4(C[C@@H](O)[C@H](O)[C@H](O)C4)[O]2)([O]C(=O)[C@]2(C[C@@H](O)[C@H](O)[C@H](O)C2)[O]3)[O][C@@]12C[C@@H](O)[C@H](O)[C@H](O)C2 [FeQ, a complex of quinic acid with Fe III]
attachment of EPEC cells to plastic well surface and biofilm formation (crystal violet, O.D. 570 nm) [1]: little or no attachment of bacterial cells to the surface and no biofilm formation | state of acne after treatment for 30 days ([2]; ferric quinate solution 340 μM once each day): completely healed | recurrence of acne after discontinuation of treatment for over one year ([2]; ferric quinate solution 340 μM once each day for 30 days): did not recur | rate of growth (growth curve) relative to kanamycin alone ([3]; kanamycin and Fe-QA): inhibited | rate of growth (growth curve) ([3]; medium only containing Fe-QA): most rapid growth | bacterial growth on plate around patch ([3]; patch immersed in Fe-QA alone): no impact on the growth; also recorded: no significant effect on bacterial growth | bacterial growth on plate around patch ([3]; patch immersed in Fe-QA and kanamycin (50 μg/mL)): fail to grow | biofilm formation on plastic coated UV beads [4]: inhibited | biofilm on human teeth (red CEPLAC staining) [5]: no teeth stained red
